24 molecules from US8748436B2, “Carboxylic acid derivatives having a 2,5,7-substituted oxazolopyrimidine ring” (Sanofi, priority 2010, dated 2014) can be followed below.

One test deals with T1, human Edg-1 receptor (Homo sapiens, UniProt P21453).
T1 construct: FLAG (N); expressed in transfected cells; membrane preparation
T1 sequence (P21453 whole entry): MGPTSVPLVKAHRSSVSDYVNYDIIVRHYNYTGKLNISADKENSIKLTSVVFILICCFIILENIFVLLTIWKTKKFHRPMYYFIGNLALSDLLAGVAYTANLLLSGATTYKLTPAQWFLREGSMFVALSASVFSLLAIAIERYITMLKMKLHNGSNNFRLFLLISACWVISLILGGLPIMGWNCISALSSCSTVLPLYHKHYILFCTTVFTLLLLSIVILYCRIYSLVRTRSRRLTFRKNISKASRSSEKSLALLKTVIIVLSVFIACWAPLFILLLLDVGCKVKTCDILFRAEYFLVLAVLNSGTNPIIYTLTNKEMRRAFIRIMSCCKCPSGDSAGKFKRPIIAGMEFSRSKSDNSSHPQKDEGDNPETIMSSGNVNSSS
In words: GTP-γ-S assay using human Edg-1 receptors (scintillation proximity assay, CHO Flp-In cell membrane preparation). Type of test: biochemical. Particulars: test compound at 10 μM; high control 10 μM S1P regarded as 100% activation; [35S]GTP-γ-S binding, triplicate. An excerpt:
A) GTP-γ-S Assay Using Human Edg-1 Receptors
In order to determine the Edg-1 receptor activation by the compounds of the invention, a GTP-γ-S (guanosine 5′-[thio]triphosphate) assay for G-protein coupled receptor binding based on the scintillation proximity assay principle was used, employing a cell membrane preparation from a CHO Flp-In cell line which constitutively overexpresses the human Edg-1 receptor.
The Flp-In™ expression system (Invitrogen, cat. no. K6010-01) allows the generation of stable mammalian cell lines into which the gene of interest has been integrated through homologous recombination at a specific genomic location called Flp Recombination Target (FRT) site by means of a Flp recombinase encoded by the pOG44 expression plasmid. The integration of the pcDNA5/FRT expression construct into the Flp-In host cell line genome results in the transcription of the gene of interest. The stably transfected cells become hygromycin-resistant.
One day prior to transfection, 200 000 Flp-In-CHO cells were seeded in Ham F-12 medium (Invitrogen, cat. no. 31765) supplemented with 10% fetal calf serum (FCS; Perbio Science, cat. no. SH30068.03) in a 6-well plate and incubated at 37° C./5% CO2 overnight. Using the FuGENE® 6 transfection reagent (Roche, cat. no. 11988387001), cells were cotransfected with the Flp recombinase expression plasmid pOG44 and a modified plasmid additionally containing the edg-1 gene (accession no. NM_001400) termed as pcDNA5-FRT-TO_nFLAG_DEST-EDG-1 with a 9:1 ratio. To obtain the modified pcDNA5-FRT-TO_nFLAG_DEST plasmid, the Invitrogen plasmid pcDNA5/FRT/TO (Invitrogen, cat. no. V6520-20) was adapted to the Gateway® (Invitrogen) cloning system by inserting a Gateway cassette containing attR recombination sites flanking a ccdB gene and a chloramphenicol-resistance gene (Gateway conversion system, Invitrogen, cat. no. 11828-029). In addition a FLAG tag epitope was added before the 5′ att recombination site to allow recombinant expression of N-terminally FLAG-tagged proteins.
For the transfection of one well, 1.08 μg of pOG44 and 0.12 μg of pcDNA5-FRT-TO_nFLAG_DEST-EDG-1 were mixed to 100 μl of serum-free Ham F-12 medium containing 6 μl of FuGENE® 6 transfection reagent. After 20 min of incubation, the transfection reagent/DNA complex was distributed dropwise on the cells. The cells were incubated for 24 h at 37° C. Then the cells from 3 wells were transferred to a T75 flask (Greiner Cellstar®, cat. no. 658175) containing Ham F-12 medium supplemented with 10% of FCS but without antibiotic and were incubated another 24 h. 48 h after transfection, the medium was replaced by selection medium (Ham F-12 supplemented with 10% of FCS and 300 μg/ml of hygromycin B (Invitrogen, cat. no. 10687-010)). The medium was exchanged every 2 to 3 days until a resistant population of cells had grown. […] After 2 weeks of selection, the cells were transferred into T175 flasks (Greiner Cellstar®, cat. no. 660175) and cultivated for batch production. Cells were harvested from the culture flasks by short treatment (2 to 5 min) with Accutase (PAA, cat. no. L11-007), resuspended in selection medium (see above) and centrifuged at 200×g for 5 min. The cells were resuspended in a mixture of 90% of FCS and 10% of dimethylsulfoxide and stored frozen in liquid nitrogen.
A membrane preparation was obtained by standard methods from the afore-described CHO Flp-In cell line constitutively overexpressing the human Edg-1 receptor. Briefly, the cryopreserved cells were taken in culture and grown until confluency in T175 cell culture flasks (Becton Dickinson, cat. no. 35 5001). […]
(In general: SPA uses beads or plates that emit light when radiolabelled molecules are held near them.)
Consider `CCCOc1nc(OC(C)CC(F)(F)F)nc2oc(-c3cc(C)c(OCC(=O)O)c(C)c3)nc12` (stereo not drawn) [Example 21, {2,6-dimethyl-4-[7-propoxy-5-(3,3,3-trifluoro-1-methyl-propoxy)-oxazolo[5,4--d]pyrimidin-2-yl]-phenoxy}-acetic acid], for which the “% Activation (Edg-1 receptor activation in percent of the activation by 10 μM S1P)” value was determined as 81%.
As for `CCCOc1nc(Oc2cccc(F)c2)nc2oc(-c3cc(C)c(OCC(=O)O)c(C)c3)nc12` [Example 34, {4-[5-(3-fiuorophenoxy)-7-propoxy-oxazolo[5,4-d]pyrimidin-2-yl]-2,6-dimethyl-phenoxy}-acetic acid], the “% Activation (Edg-1 receptor activation in percent of the activation by 10 μM S1P)” value came to 48%.
The same measure, in the same setting: the figure for `CCCOc1nc(Oc2ccc(F)cc2)nc2oc(-c3cc(C)c(OCC(=O)O)c(C)c3)nc12` [Example 35, {4-[5-(4-fiuorophenoxy)-7-propoxy-oxazolo[5,4-d]pyrimidin-2-yl]-2,6-dimethylphenoxy}-acetic acid] is 79%.

The same test, now with this note: test compound at 10 μM; high control 10 μM S1P regarded as 100% activation; [35S]GTP-γ-S binding, triplicate; read-out: % Activation (Edg-1 receptor activation in percent of the activation by 10 μM S1P).
Turning to `CCCOc1nc(OC2CCC2)nc2oc(-c3cc(C)c(OCC(=O)O)c(C)c3)nc12` [Example 14, [4-(5-cyclobutoxy-7-propoxy-oxazolo[5,4-d]pyrimidin-2-yl)-2,6-dimethyl-phenoxy]-acetic acid], the activation at 10 µM stood at 88%.
Still for that read-out and setting: as for `CCCOc1nc(OCCC)c2nc(-c3cc(C)c(OCC(=O)O)c(C)c3)oc2n1` [Example 15, [4-(5,7-dipropoxy-oxazolo[5,4-d]pyrimidin-2-yl)-2,6-dimethyl-phenoxy]-acetic acid], the figure is 98%; as for `CCCOc1nc(OCCC(F)(F)F)nc2oc(-c3cc(C)c(OCC(=O)O)c(C)c3)nc12` [Example 16, {2,6-dimethyl-4-[7-propoxy-5-(3,3,3-trifluoro-propoxy)-oxazolo[5,4-d]pyrimidin-2-yl]-phenoxy}-acetic acid], 107%.
Turning to `CCCOc1nc(OCC)nc2oc(-c3cc(C)c(OCC(=O)O)c(C)c3)nc12` [Example 17, [4-(5-ethoxy-7-propoxy-oxazolo[5,4-d]pyrimidin-2-yl)-2,6-dimethyl-phenoxy]-acetic acid], the activation at 10 µM is 70%.
Same read-out and setting: the figure for `CCCOc1nc(OCC2CCCC2)nc2oc(-c3cc(C)c(OCC(=O)O)c(C)c3)nc12` [Example 18, [4-(5-cyclopentylmethoxy-7-propoxy-oxazolo[5,4-d]pyrimidin-2-yl)-2,6-dimethyl-phenoxy]-acetic acid] is 83%; for `CCCOc1nc(OCC2CCCO2)nc2oc(-c3cc(C)c(OCC(=O)O)c(C)c3)nc12` (stereo not drawn) [Example 19, {2,6-dimethyl-4-[7-propoxy-5-(tetrahydrofuran-2-ylmethoxy)-oxazolo[5,4-d]pyrimidin-2-yl]-phenoxy}-acetic acid] it is 84%.
On to `CCCOc1nc(OC(C)CC)nc2oc(-c3cc(C)c(OCC(=O)O)c(C)c3)nc12` (stereo not drawn) [Example 20, [4-(5-sec-butoxy-7-propoxy-oxazolo[5,4-d]pyrimidin-2-yl)-2,6-dimethyl-phenoxy]-acetic acid], for which the activation at 10 µM came out at 80%.
Still for that read-out and setting: as for `CCCOc1nc(OCCC(C)C)nc2oc(-c3cc(C)c(OCC(=O)O)c(C)c3)nc12` [Example 22, {2,6-dimethyl-4-[5-(3-methyl-butoxy)-7-propoxy-oxazolo[5,4-d]pyrimidin-2-yl]-phenoxy}-acetic acid], the figure is 92%; as for `CCCOc1nc(OCCC2CC2)nc2oc(-c3cc(C)c(OCC(=O)O)c(C)c3)nc12` [Example 23, {4-[5-(2-cyclopropyl-ethoxy)-7-propoxy-oxazolo[5,4-d]pyrimidin-2-yl]-2,6-dimethyl-phenoxy}-acetic acid], 98%.
As for `CCCOc1nc(OC(C)C(F)(F)F)nc2oc(-c3cc(C)c(OCC(=O)O)c(C)c3)nc12` (stereo not drawn) [Example 24, {2,6-dimethyl-4-[7-propoxy-5-(2,2,2-trifluoro-1-methyl-ethoxy)-oxazolo[5,4-d]pyrimidin-2-yl]-phenoxy}-acetic acid], the activation at 10 µM stood at 85%.
For the molecule `CCOc1nc(Oc2cccc(F)c2)nc2oc(-c3cc(C)c(OCC(=O)O)c(C)c3)nc12` [Example 25, {4-[7-ethoxy-5-(3-fluorophenoxy)-oxazolo[5,4-d]pyrimidin-2-yl]-2,6-dimethyl-phenoxy}-acetic acid], the activation at 10 µM stood at 84%.
For the molecule `CCOc1nc(Oc2ccccc2F)nc2oc(-c3cc(C)c(OCC(=O)O)c(C)c3)nc12` [Example 26, {4-[7-ethoxy-5-(2-fluorophenoxy)-oxazolo[5,4-d]pyrimidin-2-yl]-2,6-dimethyl-phenoxy}-acetic acid], the activation at 10 µM amounted to 127%.
Still for that read-out and setting: as for `CCCOc1nc(Oc2ccsn2)nc2oc(-c3cc(C)c(OCC(=O)O)c(C)c3)nc12` [Example 27, {4-[5-(isothiazol-3-yloxy)-7-propoxy-oxazolo[5,4-d]pyrimidin-2-yl]-2,6-dimethylphenoxy}-acetic acid], the figure is 109%; as for `CCCOc1nc(Oc2cnsn2)nc2oc(-c3cc(C)c(OCC(=O)O)c(C)c3)nc12` [Example 28, {2,6-dimethyl-4-[7-propoxy-5-([1,2,5]thiadiazol-3-yloxy)-oxazolo[5,4-d]pyrimidin-2-yl]-phenoxy}-acetic acid], 83%.
Same read-out and setting: as for `CCCOc1nc(Oc2cccc(C)c2)nc2oc(-c3cc(C)c(OCC(=O)O)c(C)c3)nc12` [Example 29, [2,6-dimethyl-4-(7-propoxy-5-(3-methylphenoxy)-oxazolo[5,4-d]pyrimidin-2-yl)-phenoxy]-acetic acid], the figure is 75%; as for `CCCOc1nc(Oc2ccccc2C)nc2oc(-c3cc(C)c(OCC(=O)O)c(C)c3)nc12` [Example 30, [2,6-dimethyl-4-(7-propoxy-5-(2-methylphenoxy)-oxazolo[5,4-d]pyrimidin-2-yl)-phenoxy]-acetic acid], 97%; as for `CCCOc1nc(Oc2ccc(C)cc2)nc2oc(-c3cc(C)c(OCC(=O)O)c(C)c3)nc12` [Example 31, [2,6-dimethyl-4-(7-propoxy-5-(4-methylphenoxy)-oxazolo[5,4-d]pyrimidin-2-yl)-phenoxy]-acetic acid], 72%.
The same measure, in the same setting: the figure for `CCCOc1nc(Oc2ccc(C)nc2)nc2oc(-c3cc(C)c(OCC(=O)O)c(C)c3)nc12` [Example 32, {2,6-dimethyl-4-[5-(6-methylpyridin-3-yloxy)-7-propoxy-oxazolo[5,4-d]pyrimidin-2-yl]-phenoxy}-acetic acid] is 114%; for `CCCOc1nc(Oc2cncc(C)c2)nc2oc(-c3cc(C)c(OCC(=O)O)c(C)c3)nc12` [Example 33, {2,6-dimethyl-4-[5-(5-methylpyridin-3-yloxy)-7-propoxy-oxazolo[5,4-d]pyrimidin-2-yl]-phenoxy}-acetic acid] it is 110%; for `CCOc1nc(Oc2cc(F)ccc2C)nc2oc(-c3cc(C)c(OCC(=O)O)c(C)c3)nc12` [Example 36, {4-[7-ethoxy-5-(5-fluoro-2-methylphenoxy)-oxazolo[5,4-d]pyrimidin-2-yl]-2,6-dimethyl-phenoxy}-acetic acid] it is 116%.
In the case of `CCCOc1nc(Oc2cncc(F)c2)nc2oc(-c3cc(C)c(OCC(=O)O)c(C)c3)nc12` [Example 37, {4-[5-(5-fluoropyridin-3-yloxy)-7-propoxy-oxazolo[5,4-d]pyrimidin-2-yl]-2,6-dimethyl-phenoxy}-acetic acid], the activation at 10 µM worked out at 117%.
